test: Differential scanning calorimetry (transition point, heat resistance); format: physicochemical; settings: DSC endothermic peak indicating phase transition; powder in aluminum pan heated up to 550° C.
Description: In the following examples, reactions and measurements in an inert gas atmosphere were conducted with use of a solvent obtained by anhydrous distillation, and other reactions and operations were conducted with use of commercial Grade 1 or Special Grade solvents. The reagents were purified, as required, by anhydrous distillation or the like, and otherwise commercially available Grade 1 or Special Grade reagents were employed. In the examples, following analytical instrument and measurement instrument were employed. The nuclear magnetic resonance spectroscopy was conducted by means of LAMBDA-NMR (395.75 MHz, σ value, ppm, internal standard TMS). The differential scanning calorimetry was conducted by means of a differential scanning calorimeter METTLER-TOLED DSC1.
About 2 mg of each organic compound powder was weighed out and fed hermetically in an aluminum pan. Each sample was set on a differential scanning calorimeter and heated up to 550° C.

Peak top temperature [°C]	Compound
≤ 150	CCCCCCCCCCc1ccc2c(c1)sc1c3ccc(-c4ccccc4)cc3sc21 [Comp. Ex. 3, reference compound]
218	CCCCc1ccc2sc3c4cc5cc(-c6ccccc6)ccc5cc4sc3c2c1 [Organic compound 4]
186	CCCCCCCCc1ccc2sc3c4cc5cc(-c6ccccc6)ccc5cc4sc3c2c1 [Organic compound 5]
185	CCCCCCCCCCc1ccc2cc3sc4c5cc(-c6ccccc6)ccc5sc4c3cc2c1 [Organic compound 6]
229	CCCCCCc1ccc2cc3sc4c5cc(-c6ccc(CC)cc6)ccc5sc4c3cc2c1 [Organic compound 8]
244	CCCCCc1ccc(-c2ccc3sc4c5cc6cc(-c7ccccc7)ccc6cc5sc4c3c2)cc1 [Organic compound 9]

test: Measurement of solubility in organic solvents at 25° C.; format: physicochemical; settings: at the maximum; versus Comparative example 2
Description: (§1) About 1 mg of each organic compound powder was weighed and fed into vials, and the weight of the content in each vial was measured precisely. Into these vials, chloroform, toluene, and tetrahydronaphthalene (THN) were added at 25° C. (room temperature). When the added solvent dissolved completely, the mass was measured precisely again. The mass of the organic compound was divided by the total weight of the organic compound and the added solvent, and was multiplied by 100 to obtain solubility. Dissolution or non-dissolution was judged by visual inspection.

Solubility in the organic solvent at 25° C. relative to the organic compound in Comparative example 2 [times]	Compound
≥ 10	CCCCCCc1ccc2cc3sc4c5cc(-c6ccccc6)ccc5sc4c3cc2c1 [Organic compound 1]

same assay, conditions: chloroform, 25° C., visual inspection

Solubility in organic solvent at 25° C., chloroform [mass %]	Compound
0.5	CCCCc1ccc2sc3c4cc5cc(-c6ccccc6)ccc5cc4sc3c2c1 [Organic compound 4]
0.4	CCCCCCCCc1ccc2sc3c4cc5cc(-c6ccccc6)ccc5cc4sc3c2c1 [Organic compound 5]
0.3	CCCCCCCCCCc1ccc2cc3sc4c5cc(-c6ccccc6)ccc5sc4c3cc2c1 [Organic compound 6]
>2	CCCCCCc1ccc2cc3sc4c5cc(-c6ccc(CC)cc6)ccc5sc4c3cc2c1 [Organic compound 8]

same assay, conditions: organic solvent, 25° C.; versus Comparative example 1

Solubility compared with the organic compound in Comparative example 1	Compound
higher solubility	CCCCCCc1ccc2cc3sc4c5cc(-c6ccccc6)ccc5sc4c3cc2c1 [Organic compound 1]

same assay, conditions: tetrahydronaphthalene (THN), 25° C., visual inspection

Solubility in organic solvent at 25° C., THN [mass %]	Compound
0.5	CCCCc1ccc2sc3c4cc5cc(-c6ccccc6)ccc5cc4sc3c2c1 [Organic compound 4]
0.4	CCCCCCCCc1ccc2sc3c4cc5cc(-c6ccccc6)ccc5cc4sc3c2c1 [Organic compound 5]
0.3	CCCCCCCCCCc1ccc2cc3sc4c5cc(-c6ccccc6)ccc5sc4c3cc2c1 [Organic compound 6]
1.4	CCCCCCc1ccc2cc3sc4c5cc(-c6ccc(CC)cc6)ccc5sc4c3cc2c1 [Organic compound 8]

same assay, conditions: toluene, 25° C., visual inspection

Solubility in organic solvent at 25° C., toluene [mass %]	Compound
0.5	CCCCc1ccc2sc3c4cc5cc(-c6ccccc6)ccc5cc4sc3c2c1 [Organic compound 4]
0.4	CCCCCCCCc1ccc2sc3c4cc5cc(-c6ccccc6)ccc5cc4sc3c2c1 [Organic compound 5]
0.2	CCCCCCCCCCc1ccc2cc3sc4c5cc(-c6ccccc6)ccc5sc4c3cc2c1 [Organic compound 6]
0.9	CCCCCCc1ccc2cc3sc4c5cc(-c6ccc(CC)cc6)ccc5sc4c3cc2c1 [Organic compound 8]

test: Storage stability in a solution state (solution state after one week); format: physicochemical; settings: solutions of the solubility test
Excerpt: The organic compound represented by Formula (A) is required to be soluble in an organic solvent. The organic solvent is not particularly limited as far as being capable of dissolving the organic compound represented by Formula (A). Considering environmental problems and other conditions, the organic solvent is preferably and practically a non-halogenated solvent. Further, considering the stability of a solution obtained by dissolving the organic compound represented by Formula (A) in the organic solvent, the organic compound represented by Formula (A) needs to have reasonably high solubility at room temperature. In the organic solvent, the solubility of the organic compound represented by Formula (A) at 25° C. is usually 0.1 mass % or higher, preferably 0.3 mass % or higher, more preferably 0.5 mass % or higher, and further preferably 0.7 mass % or higher. In chloroform, the solubility of the organic compound represented by Formula (A) at 25° C. is usually 0.1 mass % or higher, preferably 0.3 mass % or higher, more preferably 0.5 mass % or higher, and further preferably 0.7 mass % or higher. In toluene, the solubility of the organic compound represented by Formula (A) at 25° C. is usually 0.1 mass % or higher, preferably 0.3 mass % or higher, more preferably 0.5 mass % or higher, and further preferably 0.7 mass % or higher. In tetrahydronaphthalene, the solubility of the organic compound represented by Formula (A) at 25° C. is usually 0.1 mass % or higher, preferably 0.3 mass % or higher, more preferably 0.5 mass % or higher, and further preferably 0.7 mass % or higher.
as §1

Solution state after one week	Compound
no precipitation	CCCCc1ccc2sc3c4cc5cc(-c6ccccc6)ccc5cc4sc3c2c1 [Organic compound 4]
no precipitation	CCCCCCCCc1ccc2sc3c4cc5cc(-c6ccccc6)ccc5cc4sc3c2c1 [Organic compound 5]
no precipitation	CCCCCCCCCCc1ccc2cc3sc4c5cc(-c6ccccc6)ccc5sc4c3cc2c1 [Organic compound 6]
no precipitation	CCCCCCc1ccc2cc3sc4c5cc(-c6ccc(CC)cc6)ccc5sc4c3cc2c1 [Organic compound 8]
